PubChem BioAssay AID1963828 (Molecular Pharmacology Branch, DTP, NCI, 2024)

System: 991263-137-R1-J2-PDC complex spheroid viability
Test: Anticancer human tumor 991263-137-R1-J2-PDC patient-derived colon adenocarcinoma cell line growth inhibition [POLQ]
Settings: for IC50: curve of first compound; for viability, T/C: stronger effect = lower value
Method in brief: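 PDC + HUVEC + MSC complex spheroids; POLQ inhibitors ± partner drugs; top conc. at/near clinical Cmax, else 10 microM (SN-38 1 microM), half-log dilutions; 37 degrees C, 5% CO2.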

[1] = second compound 0.0316 µM, first compound 0.0316 µM
[2] = second compound 0.0316 µM, first compound 0.1 µM
[3] = second compound 0.0316 µM, first compound 0.316 µM
[4] = second compound 0.0316 µM, first compound 1 µM
[5] = second compound 0.0316 µM, first compound 3.16 µM
[6] = second compound 0.0316 µM, first compound 10 µM
[7] = second compound 0.1 µM, first compound 0.0316 µM
[8] = second compound 0.1 µM, first compound 0.1 µM
[9] = second compound 0.1 µM, first compound 0.316 µM
[10] = second compound 0.1 µM, first compound 1 µM
[11] = second compound 0.1 µM, first compound 3.16 µM
[12] = second compound 0.1 µM, first compound 10 µM
[13] = second compound 0.316 µM, first compound 0.0316 µM
[14] = second compound 0.316 µM, first compound 0.1 µM
[15] = second compound 0.316 µM, first compound 0.316 µM
[16] = second compound 0.316 µM, first compound 1 µM
[17] = second compound 0.316 µM, first compound 3.16 µM
[18] = second compound 0.316 µM, first compound 10 µM
[19] = second compound 1 µM, first compound 0.0316 µM
[20] = second compound 1 µM, first compound 0.1 µM
[21] = second compound 1 µM, first compound 0.316 µM
[22] = second compound 1 µM, first compound 1 µM
[23] = second compound 1 µM, first compound 3.16 µM
[24] = second compound 1 µM, first compound 10 µM
[25] = second compound 3.16 µM, first compound 0.0316 µM
[26] = second compound 3.16 µM, first compound 0.1 µM
[27] = second compound 3.16 µM, first compound 0.316 µM
[28] = second compound 3.16 µM, first compound 1 µM
[29] = second compound 3.16 µM, first compound 3.16 µM
[30] = second compound 3.16 µM, first compound 10 µM
[31] = second compound 10 µM, first compound 0.0316 µM
[32] = second compound 10 µM, first compound 0.1 µM
[33] = second compound 10 µM, first compound 0.316 µM
[34] = second compound 10 µM, first compound 1 µM
[35] = second compound 10 µM, first compound 3.16 µM
[36] = second compound 10 µM, first compound 10 µM
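Also: spheroids exposed to compounds for 7 days before readout.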
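For viability, T/C in this document: 100% = DMSO vehicle control viability.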

Compound `CC1COCCN1c1cc(C2(O)CC3CCC(C2)O3)c2cnn(-c3ccn[nH]3)c2n1` (stereo not drawn) + Nc1ccc(C#CCN(C(=O)Cc2ncc(C(F)(F)F)cc2C(F)(F)F)c2ccc(F)cc2)nn1 has an IC50 (second compound 0.0316 µM) of 1.97 µM, an IC50 (second compound 0.1 µM) of 1.83 µM and an IC50 (second compound 0.316 µM) of 1.97 µM. For the same compound, the IC50 (second compound 1 µM) was 1.81 µM, the IC50 (second compound 3.16 µM) was 1.25 µM and the IC50 (second compound 10 µM) was 0.882 µM. For the same compound, the viability, T/C [1] was 105%, the viability, T/C [2] was 104% and the viability, T/C [3] was 83%. For the same compound, the viability, T/C [4] was 62.2%, the viability, T/C [5] was 42.5% and the viability, T/C [6] was 30.5%. For the same compound, the viability, T/C [7] was 88.2%, the viability, T/C [8] was 97.1% and the viability, T/C [9] was 80.2%. The viability, T/C [10] was 59%, the viability, T/C [11] was 43.2% and the viability, T/C [12] was 30.8%. The viability, T/C [13] was 109%, the viability, T/C [14] was 108% and the viability, T/C [15] was 89.9%. It also gave a viability, T/C [16] of 63.4%, a viability, T/C [17] of 40.8% and a viability, T/C [18] of 33.1%. For the same compound, the viability, T/C [19] was 110%, the viability, T/C [20] was 101% and the viability, T/C [21] was 81.5%. The viability, T/C [22] was 61.5%, the viability, T/C [23] was 38.9% and the viability, T/C [24] was 32.7%. For the same compound, the viability, T/C [25] was 96.8%, the viability, T/C [26] was 88.7% and the viability, T/C [27] was 77.4%. The viability, T/C [28] was 52.8%, the viability, T/C [29] was 36.5% and the viability, T/C [30] was 31%. The viability, T/C [31] was 78.3%, the viability, T/C [32] was 82.1% and the viability, T/C [33] was 67.3%. For the same compound, the viability, T/C [34] was 45.7%, the viability, T/C [35] was 36.4% and the viability, T/C [36] was 24.5%.
Compound `COc1ccc([C@@H](O)c2cc(-c3ncnc4cc(N5CCOCC5)ccc34)c(F)cc2Cl)nn1` + Nc1ccc(C#CCN(C(=O)Cc2ncc(C(F)(F)F)cc2C(F)(F)F)c2ccc(F)cc2)nn1 has an IC50 (second compound 0.0316 µM) of 5.34 µM, an IC50 (second compound 0.1 µM) of 4.8 µM and an IC50 (second compound 0.316 µM) of 6.69 µM. It also gave an IC50 (second compound 1 µM) of 5.15 µM, an IC50 (second compound 3.16 µM) of 4.04 µM and an IC50 (second compound 10 µM) of 2.96 µM. The viability, T/C [1] was 110%, the viability, T/C [2] was 96.3% and the viability, T/C [3] was 93.1%. It also gave a viability, T/C [4] of 88.9%, a viability, T/C [5] of 66.2% and a viability, T/C [6] of 30.4%. It also gave a viability, T/C [7] of 105%, a viability, T/C [8] of 120% and a viability, T/C [9] of 91.1%. The viability, T/C [10] was 85.6%, the viability, T/C [11] was 59.2% and the viability, T/C [12] was 33.8%. For the same compound, the viability, T/C [13] was 100%, the viability, T/C [14] was 105% and the viability, T/C [15] was 96.5%. The viability, T/C [16] was 98.2%, the viability, T/C [17] was 87.9% and the viability, T/C [18] was 29.5%. The viability, T/C [19] was 107%, the viability, T/C [20] was 101% and the viability, T/C [21] was 99.5%. It also gave a viability, T/C [22] of 93.7%, a viability, T/C [23] of 64.7% and a viability, T/C [24] of 29.6%. The viability, T/C [25] was 97.1%, the viability, T/C [26] was 102% and the viability, T/C [27] was 87.1%. It also gave a viability, T/C [28] of 94%, a viability, T/C [29] of 55.5% and a viability, T/C [30] of 29.5%. The viability, T/C [31] was 99.9%, the viability, T/C [32] was 95.6% and the viability, T/C [33] was 95.4%. For the same compound, the viability, T/C [34] was 82.5%, the viability, T/C [35] was 48% and the viability, T/C [36] was 28.6%.
`Nc1ccn(C2OC(CO)C(O)C2(F)F)c(=O)n1` (stereo not drawn) + COC1C(OC(N)=O)C(O)C(Oc2ccc3c(O)c(NC(=O)c4ccc(O)c(CC=C(C)C)c4)c(=O)oc3c2C)OC1(C)C was tested, and the IC50 (second compound 0.0316 µM) was 0.553 µM, the IC50 (second compound 0.1 µM) was 0.898 µM and the IC50 (second compound 0.316 µM) was 1.92 µM. It also gave an IC50 (second compound 1 µM) of 0.86 µM, an IC50 (second compound 3.16 µM) of 0.736 µM and an IC50 (second compound 10 µM) of 1.11 µM. It also gave a viability, T/C [1] of 77.8%, a viability, T/C [2] of 56% and a viability, T/C [3] of 56.4%. It also gave a viability, T/C [4] of 46.9%, a viability, T/C [5] of 47.6% and a viability, T/C [6] of 36.6%. The viability, T/C [7] was 67.6%, the viability, T/C [8] was 60.5% and the viability, T/C [9] was 57.5%. It also gave a viability, T/C [10] of 46.7%, a viability, T/C [11] of 45.5% and a viability, T/C [12] of 42%. The viability, T/C [13] was 65.1%, the viability, T/C [14] was 70.8% and the viability, T/C [15] was 62%. For the same compound, the viability, T/C [16] was 54.1%, the viability, T/C [17] was 46.9% and the viability, T/C [18] was 33%. For the same compound, the viability, T/C [19] was 72.8%, the viability, T/C [20] was 69.9% and the viability, T/C [21] was 53.7%. It also gave a viability, T/C [22] of 48.5%, a viability, T/C [23] of 43.4% and a viability, T/C [24] of 35.5%. It also gave a viability, T/C [25] of 72.1%, a viability, T/C [26] of 63.5% and a viability, T/C [27] of 58%. The viability, T/C [28] was 48%, the viability, T/C [29] was 39.1% and the viability, T/C [30] was 37.9%. For the same compound, the viability, T/C [31] was 69.4%, the viability, T/C [32] was 75.7% and the viability, T/C [33] was 59.7%. It also gave a viability, T/C [34] of 53.3%, a viability, T/C [35] of 38.2% and a viability, T/C [36] of 34.2%.
`C#Cc1c(F)ccc2cc(O)cc(-c3ncc4c(N5CC6CCC(C5)N6)nc(OCC56CCCN5CC(F)C6)nc4c3F)c12` (stereo not drawn) + COC1C(OC(N)=O)C(O)C(Oc2ccc3c(O)c(NC(=O)c4ccc(O)c(CC=C(C)C)c4)c(=O)oc3c2C)OC1(C)C showed an IC50 (second compound 0.0316 µM) of over 10 µM, an IC50 (second compound 0.1 µM) of over 10 µM and an IC50 (second compound 0.316 µM) of over 10 µM. The IC50 (second compound 1 µM) was over 10 µM, the IC50 (second compound 3.16 µM) was over 10 µM and the IC50 (second compound 10 µM) was over 10 µM. It also gave a viability, T/C [1] of 103%, a viability, T/C [2] of 107% and a viability, T/C [3] of 105%. For the same compound, the viability, T/C [4] was 109%, the viability, T/C [5] was 108% and the viability, T/C [6] was 95.1%. For the same compound, the viability, T/C [7] was 103%, the viability, T/C [8] was 106% and the viability, T/C [9] was 99.4%. It also gave a viability, T/C [10] of 88.2%, a viability, T/C [11] of 116% and a viability, T/C [12] of 104%. It also gave a viability, T/C [13] of 98.9%, a viability, T/C [14] of 120% and a viability, T/C [15] of 118%. It also gave a viability, T/C [16] of 91.5%, a viability, T/C [17] of 114% and a viability, T/C [18] of 92.7%. It also gave a viability, T/C [19] of 95.4%, a viability, T/C [20] of 113% and a viability, T/C [21] of 112%. It also gave a viability, T/C [22] of 107%, a viability, T/C [23] of 117% and a viability, T/C [24] of 90.6%. It also gave a viability, T/C [25] of 104%, a viability, T/C [26] of 123% and a viability, T/C [27] of 122%. The viability, T/C [28] was 121%, the viability, T/C [29] was 109% and the viability, T/C [30] was 104%. It also gave a viability, T/C [31] of 102%, a viability, T/C [32] of 102% and a viability, T/C [33] of 102%. The viability, T/C [34] was 110%, the viability, T/C [35] was 102% and the viability, T/C [36] was 91.6%.
